{"source": "patent US20240166626A1", "about": "“Compounds and Methods for Preventing, Treating, or Ameliorating Airway Disease” (THOMAS JEFFERSON UNIVERSITY, priority 2021, published 2024)", "biological_target": "GRK5 (Homo sapiens, UniProt P34947)", "sequence (P34947 whole entry, species assumed)": "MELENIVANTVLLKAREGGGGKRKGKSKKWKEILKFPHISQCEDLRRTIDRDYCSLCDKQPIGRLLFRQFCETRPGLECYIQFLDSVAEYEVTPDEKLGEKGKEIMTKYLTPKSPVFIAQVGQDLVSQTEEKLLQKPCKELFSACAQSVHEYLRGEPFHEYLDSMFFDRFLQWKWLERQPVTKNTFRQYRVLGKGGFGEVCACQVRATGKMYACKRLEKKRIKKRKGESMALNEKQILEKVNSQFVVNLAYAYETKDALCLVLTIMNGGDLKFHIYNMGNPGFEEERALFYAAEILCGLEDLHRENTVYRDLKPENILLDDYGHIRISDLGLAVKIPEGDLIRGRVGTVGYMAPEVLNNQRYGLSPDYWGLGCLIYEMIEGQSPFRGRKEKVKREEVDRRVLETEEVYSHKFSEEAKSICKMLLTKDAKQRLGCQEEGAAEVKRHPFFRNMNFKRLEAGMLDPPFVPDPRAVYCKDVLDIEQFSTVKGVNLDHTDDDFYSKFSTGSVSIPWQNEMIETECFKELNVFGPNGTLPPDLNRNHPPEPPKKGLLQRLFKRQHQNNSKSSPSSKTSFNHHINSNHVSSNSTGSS", "experiment": "In vitro tubulin phosphorylation assay with purified GRK5", "type": "biochemical", "settings": "10 μM DFPQ, FIG. 3C", "procedure": "FIGS. 3A-3D: DFPQ inhibits GRK-mediated phosphorylation of the β2AR. FIG. 3A: Representative time course of agonist promoted phosphorylation of the β2AR. […] Cells were lysed and the FLAG-β2AR was immunoprecipitated. Phosphorylation at […] and 356 was analyzed by western blot using a pSer^355/356 antibody while total β2AR was measured using a β2AR C-terminal antibody. The western blot is representative of at least 3 experiments and is quantified in FIG. 3B. FIG. 3C: […] FIG. 3D: Bar graphs represent pixel densitometry of radiolabeled tubulin at the 60 min timepoint from 4 experiments. […]® ADRB2 cells (DiscoveRx) were maintained with the AssayCompleteTM Cell Culture kit (DiscoveRx catalog #92-[…]). […] Cells were read every three minutes for 18 minutes on a PolarStar Optima plate reader (BMG) to establish peak signal. […] Luminescence was determined at room temperature (23-25° C.) on a PolarStar Optima plate reader (BMG). […] Relative assay bias was calculated from the ratio of normalized cAMP and arrestin recruitment responses. […] BRET was measured using a Tecan Infinite F500 microplate reader. […] Bound [35 S]GTPγS was collected by rapid filtration on GF/B filters, washed 4 times with 4 ml of cold GTPγS wash buffer and analyzed by liquid scintillation counting. […] Immunoprecipitated proteins were separated by SDS-PAGE and analyzed by western blot using a β2AR C-terminal tail or phospho-specific antibody. […]"}
{"smiles": "Fc1ccc(Nc2nc(NC3CCCCC3)c3ccccc3n2)cc1F", "note": "[DFPQ, N^4-cyclohexyl-N^2-(3,4-difluorophenyl)quinazoline-2,4-diamine]", "values": [{"measurement": "phosphorylation of tubulin by GRK5", "setting": "60-minute time course", "result": "unaffected"}, {"measurement": "GRK5 autophosphorylation", "result": "lack of an effect"}]}
